# Results as given in US20250011368A1, “DLL3 TARGETING PEPTIDES AND CONSTRUCTS THEREOF” (MARIANA ONCOLOGY INC., priority 2023, published 2025).
# Numbered stars: 1 amine (or outer) side, 2 acyl side, 3 side chain; on linkers, the order of the positions; unused ones are H or OH. Bridge positions count the residues as written; N and C are the ends. Square brackets hold non-standard residues; d marks the D form. Side chains are listed from the residue outwards. Peptide text beside a SMILES is read from it. * marks the point of attachment. DOTA = O=C(O)CN1CCN(CC(=O)O)CCN(CC(=O)*)CCN(CC(=O)O)CC1; Trp(7-Cl) = N[C@@H](Cc1c[nH]c2c(Cl)cccc12)C(=O)O; Trp(7-Me) = Cc1cccc2c(C[C@H](N)C(=O)O)c[nH]c12; γGlu = O=C(O)[C@H](CCC(=O)[*:2])N[*:1]; 2Nal = N[C@@H](Cc1ccc2ccccc2c1)C(=O)O
# Biological target: T1, human DLL3 (Homo sapiens, UniProt Q9NYJ7)
# T1 sequence (Q9NYJ7 27-618): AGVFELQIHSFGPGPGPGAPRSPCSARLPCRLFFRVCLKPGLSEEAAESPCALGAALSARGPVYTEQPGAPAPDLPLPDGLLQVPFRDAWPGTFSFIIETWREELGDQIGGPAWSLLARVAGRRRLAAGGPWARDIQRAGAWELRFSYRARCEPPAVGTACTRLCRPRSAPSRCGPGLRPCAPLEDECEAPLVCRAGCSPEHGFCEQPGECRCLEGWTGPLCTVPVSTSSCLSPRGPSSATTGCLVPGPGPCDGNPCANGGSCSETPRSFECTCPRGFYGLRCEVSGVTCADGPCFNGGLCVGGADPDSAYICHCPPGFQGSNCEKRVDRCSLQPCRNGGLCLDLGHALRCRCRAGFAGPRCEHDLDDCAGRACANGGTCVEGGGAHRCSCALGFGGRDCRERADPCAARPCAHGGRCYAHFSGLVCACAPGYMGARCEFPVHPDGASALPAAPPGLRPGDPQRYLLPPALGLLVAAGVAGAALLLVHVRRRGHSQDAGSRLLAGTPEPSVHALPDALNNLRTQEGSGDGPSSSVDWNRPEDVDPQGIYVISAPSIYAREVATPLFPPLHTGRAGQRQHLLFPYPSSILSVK
# Experiment: Affinity determination by Surface Plasmon Resonance (SPR)
# Type: binding
# Conditions: 25° C., biotinylated human DLL3 immobilized on streptavidin sensor chip, 1:1 binding model; read-out: SPR KD
# Summary of the method: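 Kinetic and affinity constants were derived by fitting sensorgrams to a 1:1 binding model. Graded compound concentrations flowed at 100 μL/minute in 20 mM phosphate running buffer with 2% DMSO over streptavidin-immobilized biotinylated human DLL3, reference-subtracted.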
row,Structure (SMILES),Kd
1,"CC[C@H](C)[C@H](NC(=O)[C@@H](NC(=O)[C@H](Cc1c[nH]c2c(C)cccc12)NC(C)=O)[C@@H](C)O)C(=O)N[C@H]1CSSC[C@@H](C(=O)N[C@@H](Cc2c[nH]c3ccccc23)C(=O)N2CCC[C@H]2C(=O)N[C@H](CCCCNC(=O)CC[C@H](NC(=O)CC[C@H](NC(=O)CC[C@H](NC(=O)CN2CCN(CC(=O)O)CCN(CC(=O)O)CCN(CC(=O)O)CC2)C(=O)O)C(=O)O)C(=O)O)C(N)=O)NC(=O)[C@H](CC(=O)O)NC(=O)[C@H](Cc2cnc[nH]2)NC(=O)[C@H](Cc2ccc3ccccc3c2)NC(=O)[C@H](CC(N)=O)NC(=O)[C@H](CC(N)=O)NC1=O [compound 207, Ac-(7-Me-W)-T-I-C(3)-N-N-(2Nal)-H-D-C(3)-W-P-[D-Lys(gE-gE-gE-DOTA)]-NH2] (Ac-[Trp(7-Me)]TICNN[2Nal]HDCWP[dK]([γGlu-γGlu-γGlu-DOTA])-NH2; disulfide 4-10)",< 1 nM
2,"CC[C@H](C)[C@H](NC(=O)[C@@H](NC(=O)[C@H](Cc1c[nH]c2ccccc12)NC(C)=O)[C@@H](C)O)C(=O)N[C@H]1CSSC[C@@H](C(=O)N[C@@H](Cc2c[nH]c3ccccc23)C(=O)N2CCC[C@H]2C(=O)N[C@H](CCCCNC(=O)CN2CCN(CC(=O)O)CCN(CC(=O)O)CCN(CC(=O)O)CC2)C(N)=O)NC(=O)[C@H](CC(=O)O)NC(=O)[C@H](Cc2cnc[nH]2)NC(=O)[C@H](Cc2ccc3ccccc3c2)NC(=O)[C@H](CC(N)=O)NC(=O)[C@H](CO)NC1=O [compound 208, Ac-W-T-I-C(3)-(Ser)-N-(2Nal)-H-D-C(3)-W-P-[D-Lys(DOTA)]-NH2] (Ac-WTICSN[2Nal]HDCWP[dK](DOTA)-NH2; disulfide 4-10)",< 1 nM
3,"CC[C@H](C)[C@H](NC(=O)[C@@H](NC(=O)[C@H](Cc1c[nH]c2ccccc12)NC(C)=O)[C@@H](C)O)C(=O)N[C@H]1CSSC[C@@H](C(=O)N[C@@H](Cc2c[nH]c3ccccc23)C(=O)N2CCC[C@H]2C(=O)N[C@H](CCCCNC(=O)CN2CCN(CC(=O)O)CCN(CC(=O)O)CCN(CC(=O)O)CC2)C(N)=O)NC(=O)[C@H](CC(=O)O)NC(=O)[C@H](Cc2cnc[nH]2)NC(=O)[C@H](Cc2ccc3ccccc3c2)NC(=O)[C@H](CC(=O)O)NC(=O)[C@H](CC(N)=O)NC1=O [compound 209, Ac-W-T-I-C(3)-N-(Asp)-(2Nal)-H-D-C(3)-W-P-[D-Lys(DOTA)]-NH2] (Ac-WTICND[2Nal]HDCWP[dK](DOTA)-NH2; disulfide 4-10)",< 1 nM
4,"CC[C@H](C)[C@H](NC(=O)[C@@H](NC(=O)[C@H](Cc1c[nH]c2ccccc12)NC(C)=O)[C@@H](C)O)C(=O)N[C@H]1CSSC[C@@H](C(=O)N[C@@H](Cc2c[nH]c3ccccc23)C(=O)N2CCC[C@H]2C(=O)N[C@H](CCCCNC(=O)CN2CCN(CC(=O)O)CCN(CC(=O)O)CCN(CC(=O)O)CC2)C(N)=O)NC(=O)[C@H](CC(=O)O)NC(=O)[C@H](Cc2cnc[nH]2)NC(=O)[C@H](Cc2ccc3ccccc3c2)NC(=O)[C@H](CCCCN)NC(=O)[C@H](CC(N)=O)NC1=O [compound 213, Ac-W-T-I-C(3)-N-(Lys)-(2Nal)-H-D-C(3)-W-P-[D-Lys(DOTA)]-NH2] (Ac-WTICNK[2Nal]HDCWP[dK](DOTA)-NH2; disulfide 4-10)",< 1 nM
5,"CC[C@H](C)[C@H](NC(=O)[C@@H](NC(=O)[C@H](Cc1c[nH]c2c(Cl)cccc12)NC(C)=O)[C@@H](C)O)C(=O)N[C@H]1CSSC[C@@H](C(=O)N[C@@H](Cc2c[nH]c3ccccc23)C(=O)N2CCC[C@H]2C(=O)N[C@H](CCCCNC(=O)CN2CCN(CC(=O)O)CCN(CC(=O)O)CCN(CC(=O)O)CC2)C(N)=O)NC(=O)[C@H](CC(=O)O)NC(=O)[C@H](Cc2cnc[nH]2)NC(=O)[C@H](Cc2c[nH]c3ccccc23)NC(=O)[C@H](CC(N)=O)NC(=O)[C@H](CC(N)=O)NC1=O [compound 226, Ac-(7-CI-W)-T-I-C(3)-N-N-W-H-D-C(3)-W-P-[D-Lys(DOTA)]-NH2] (Ac-[Trp(7-Cl)]TICNNWHDCWP[dK](DOTA)-NH2; disulfide 4-10)",1 to 10 nM
